In PubChem BioAssay (NCI):
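Results reflect a 48-hour exposure of cells in 96-well plates to compound at five concentrations. At the TGI there is no net growth.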

Columns and labels:
Experiment in all cases: DTP human tumour cell line panel, 48 h
HCC-2998 colon = system: HCC-2998 colon
RXF 393 renal = system: RXF 393 renal
SF-268 CNS = system: SF-268 CNS
HOP-62 NSCLC = system: HOP-62 NSCLC
SW-620 colon = system: SW-620 colon
ACHN renal = system: ACHN renal
786-0 renal = system: 786-0 renal
NCI-H522 lung = system: NCI-H522 lung
SN12C renal = system: SN12C renal
OVCAR-5 ovarian = system: OVCAR-5 ovarian
EKVX NSCLC = system: EKVX NSCLC
SNB-78 CNS = system: SNB-78 CNS
NCI-H226 lung = system: NCI-H226 lung
SNB-75 CNS = system: SNB-75 CNS
LXFL 529 NSCLC = system: LXFL 529 NSCLC
UACC-62 melanoma = system: UACC-62 melanoma
SNB-19 CNS = system: SNB-19 CNS
SK-MEL-5 melanoma = system: SK-MEL-5 melanoma
DMS 114 small cell lung = system: DMS 114 small cell lung
TK-10 renal = system: TK-10 renal
SK-MEL-28 melanoma = system: SK-MEL-28 melanoma
COLO 205 colon = system: COLO 205 colon
NCI-H460 lung = system: NCI-H460 lung
SF-539 CNS = system: SF-539 CNS
UACC-257 melanoma = system: UACC-257 melanoma
M19-MEL melanoma = system: M19-MEL melanoma
SF-295 CNS = system: SF-295 CNS
A498 renal = system: A498 renal
HOP-92 NSCLC = system: HOP-92 NSCLC
KM12 colon = system: KM12 colon
OVCAR-8 ovarian = system: OVCAR-8 ovarian
SK-OV-3 ovarian = system: SK-OV-3 ovarian
UO-31 renal = system: UO-31 renal
HL-60(TB) leukemia = system: HL-60(TB) leukemia
SR leukemia = system: SR leukemia
OVCAR-3 ovarian = system: OVCAR-3 ovarian
IGROV1 ovarian = system: IGROV1 ovarian
KM20L2 colon = system: KM20L2 colon
DLD-1 colon = system: DLD-1 colon
A549 NSCLC = system: A549 NSCLC
NCI-H23 lung = system: NCI-H23 lung
MALME-3M melanoma = system: MALME-3M melanoma
OVCAR-4 ovarian = system: OVCAR-4 ovarian
XF 498 CNS = system: XF 498 CNS
HCT-15 colon = system: HCT-15 colon
HOP-18 NSCLC = system: HOP-18 NSCLC
HCT-116 colon = system: HCT-116 colon
LOX IMVI melanoma = system: LOX IMVI melanoma
M14 melanoma = system: M14 melanoma
RXF-631 renal = system: RXF-631 renal
K-562 leukemia = system: K-562 leukemia
U251 CNS = system: U251 CNS
HT29 colon = system: HT29 colon
CCRF-CEM leukemia = system: CCRF-CEM leukemia
CAKI-1 renal = system: CAKI-1 renal
SK-MEL-2 melanoma = system: SK-MEL-2 melanoma
MOLT-4 leukemia = system: MOLT-4 leukemia
RPMI-8226 leukemia = system: RPMI-8226 leukemia
DMS 273 small cell lung = system: DMS 273 small cell lung

Measured: TGI

CCOC(=O)C(/C(=N/NC(=O)OC)C(=O)Nc1ccc(C(C)=O)cc1)c1cnc2ccccc2n1 (stereo not given)
> 100 µM: HCC-2998 colon | RXF 393 renal | SF-268 CNS | HOP-62 NSCLC | SW-620 colon | ACHN renal | 786-0 renal | NCI-H522 lung | SN12C renal | OVCAR-5 ovarian | EKVX NSCLC | SNB-78 CNS | NCI-H226 lung | SNB-75 CNS | LXFL 529 NSCLC | UACC-62 melanoma | SNB-19 CNS | SK-MEL-5 melanoma | DMS 114 small cell lung | TK-10 renal | SK-MEL-28 melanoma | COLO 205 colon | NCI-H460 lung | SF-539 CNS | UACC-257 melanoma | M19-MEL melanoma | SF-295 CNS | A498 renal | HOP-92 NSCLC | KM12 colon | OVCAR-8 ovarian | SK-OV-3 ovarian | UO-31 renal | HL-60(TB) leukemia | SR leukemia | OVCAR-3 ovarian | IGROV1 ovarian | KM20L2 colon | DLD-1 colon | A549 NSCLC | NCI-H23 lung | MALME-3M melanoma | OVCAR-4 ovarian | XF 498 CNS | HCT-15 colon | HOP-18 NSCLC | HCT-116 colon | LOX IMVI melanoma | M14 melanoma | RXF-631 renal | K-562 leukemia | U251 CNS | HT29 colon | CCRF-CEM leukemia | CAKI-1 renal

COC(=O)C(=O)C(CC(=O)Nc1c(C)cccc1C)C(=O)OC (stereo not given)
> 100 µM: HCC-2998 colon | RXF 393 renal | SF-268 CNS | HOP-62 NSCLC | SW-620 colon | ACHN renal | 786-0 renal | NCI-H522 lung | SN12C renal | OVCAR-5 ovarian | EKVX NSCLC | SNB-78 CNS | NCI-H226 lung | LXFL 529 NSCLC | UACC-62 melanoma | SNB-19 CNS | SK-MEL-5 melanoma | DMS 114 small cell lung | TK-10 renal | SK-MEL-28 melanoma | SK-MEL-2 melanoma | NCI-H460 lung | SF-539 CNS | UACC-257 melanoma | M19-MEL melanoma | SF-295 CNS | HOP-92 NSCLC | KM12 colon | OVCAR-8 ovarian | SK-OV-3 ovarian | UO-31 renal | HL-60(TB) leukemia | SR leukemia | OVCAR-3 ovarian | IGROV1 ovarian | KM20L2 colon | DLD-1 colon | A549 NSCLC | NCI-H23 lung | MALME-3M melanoma | OVCAR-4 ovarian | XF 498 CNS | HCT-15 colon | HOP-18 NSCLC | MOLT-4 leukemia | HCT-116 colon | LOX IMVI melanoma | M14 melanoma | RPMI-8226 leukemia | RXF-631 renal | K-562 leukemia | U251 CNS | HT29 colon | CCRF-CEM leukemia | CAKI-1 renal

CCOC(=O)C(C(=O)OCC)P(=S)(S)c1ccccc1 (stereo not given)
> 100 µM: RXF 393 renal | SF-268 CNS | HOP-62 NSCLC | SW-620 colon | ACHN renal | 786-0 renal | NCI-H522 lung | SN12C renal | OVCAR-5 ovarian | EKVX NSCLC | NCI-H226 lung | LXFL 529 NSCLC | DMS 273 small cell lung | UACC-62 melanoma | SNB-19 CNS | SK-MEL-5 melanoma | DMS 114 small cell lung | TK-10 renal | SK-MEL-28 melanoma | COLO 205 colon | SK-MEL-2 melanoma | NCI-H460 lung | SF-539 CNS | UACC-257 melanoma | M19-MEL melanoma | SF-295 CNS | A498 renal | HOP-92 NSCLC | KM12 colon | OVCAR-8 ovarian | SK-OV-3 ovarian | UO-31 renal | HL-60(TB) leukemia | SR leukemia | IGROV1 ovarian | KM20L2 colon | DLD-1 colon | A549 NSCLC | NCI-H23 lung | MALME-3M melanoma | OVCAR-4 ovarian | XF 498 CNS | MOLT-4 leukemia | LOX IMVI melanoma | RXF-631 renal | K-562 leukemia | U251 CNS | HT29 colon | CCRF-CEM leukemia | CAKI-1 renal
